{"source": "ChEMBL document CHEMBL1800066", "about": "(J Med Chem, 2011)", "key": {"Mus musculus [1]": {"system": "Mus musculus", "assay": "Toxicity in human GTL16 cells xenografted CD1 nu/nu mouse assessed as mortality at 10 to 200 mg/kg, po qd", "type": "organism-based", "set-up": "dose 10-200 mg/kg, route oral", "details": "in vivo"}, "[2]": {"assay": "Cmax in dog at 2 mg/kg, po", "type": "ADME, organism-based, Canis lupus familiaris", "set-up": "dose 2 mg/kg, route oral", "details": "in vivo"}, "Cytochrome P450 2D6": {"target": "Cytochrome P450 2D6 (Homo sapiens, UniProt P10635)", "assay": "Inhibition of CYP2D6", "type": "ADME"}, "[3]": {"assay": "Cmax in rat at 5 mg/kg, po", "type": "ADME, organism-based", "set-up": "dose 5 mg/kg, route oral", "details": "in vivo"}, "[4]": {"target": "Hepatocyte growth factor receptor (Homo sapiens, UniProt P08581, Y1230H)"}, "[5]": {"assay": "Half life in dog at 1 mg/kg, iv", "type": "ADME, organism-based, Canis lupus familiaris", "set-up": "dose 1 mg/kg, route intravenous", "details": "in vivo"}, "[6]": {"target": "Tyrosine-protein kinase JAK2 (Homo sapiens, UniProt O60674)", "assay": "Inhibition of human JAK2"}, "Mus musculus [7]": {"system": "Mus musculus", "assay": "Toxicity in human GTL16 cells xenografted CD1 nu/nu mouse assessed as mortality at 10 to 100 mg/kg, po BID", "type": "organism-based", "set-up": "dose 10-100 mg/kg, route oral", "details": "in vivo"}, "[8]": {"assay": "Plasma clearance in monkey at 0.25 mg/kg, iv", "type": "ADME, organism-based, Macaca mulatta", "set-up": "dose 0.25 mg/kg, route intravenous", "details": "rhesus monkey"}, "[9]": {"target": "T1, Hepatocyte growth factor receptor (Homo sapiens, UniProt P08581)", "assay": "Inhibition of recombinant human c-MET phosphorylation at C-terminal Y1230"}, "[10]": {"assay": "AUC (0 to infinity) in mouse at 1 mg/kg, iv", "type": "ADME, organism-based", "set-up": "time infinity, dose 1 mg/kg, route intravenous", "details": "plasma"}, "[11]": {"target": "Fibroblast growth factor receptor 2 (Homo sapiens, UniProt P21802)", "assay": "Inhibition of human FGFR2"}, "[12]": {"assay": "AUC (0 to infinity) in monkey at 0.5 mg/kg, po", "type": "ADME, organism-based, Macaca mulatta", "set-up": "time infinity, dose 0.5 mg/kg, route oral", "details": "rhesus monkey, plasma"}, "[13]": {"assay": "Tmax in rat at 5 mg/kg, po", "type": "ADME, organism-based", "set-up": "dose 5 mg/kg, route oral", "details": "in vivo"}, "[14]": {"assay": "Solubility of the compound at pH 7.4", "type": "physicochemical", "details": "buffer"}, "[15]": {"target": "Tyrosine-protein kinase Mer (Homo sapiens, UniProt Q12866)", "assay": "Inhibition of human Mer"}, "[16]": {"assay": "Oral bioavailability in rat at 5 mg/kg", "type": "ADME, organism-based", "details": "in vivo"}, "[17]": {"assay": "Volume of distribution at steady state in monkey at 0.25 mg/kg, iv", "type": "ADME, organism-based, Macaca mulatta", "set-up": "dose 0.25 mg/kg, route intravenous", "details": "rhesus monkey, in vivo, read-out: Vdss"}, "[18]": {"assay": "Half life in monkey at 0.25 mg/kg, iv", "type": "ADME, organism-based, Macaca mulatta", "set-up": "dose 0.25 mg/kg, route intravenous", "details": "rhesus monkey, in vivo"}, "Mus musculus [19]": {"system": "Mus musculus", "assay": "Inhibition of c-Met phosphorylation at Y1365 in human GTL16 cells xenografted in CD1 nu/nu mouse at 10 to 100 mg/kg, po BID measured after 4 hrs by immunostaining assay", "type": "functional, organism-based"}, "[20]": {"target": "T1, Hepatocyte growth factor receptor", "assay": "Inhibition of c-MET overexpressed in human GTL-16 cells assessed as phosphorylation at C-terminal Y1365 after 2 hrs by Western blot analysis", "type": "cell-based"}, "[21]": {"target": "Fibroblast growth factor receptor 3 (Homo sapiens, UniProt P22607)", "assay": "Inhibition of human FGFR3"}, "[22]": {"target": "Hepatocyte growth factor receptor (Homo sapiens, UniProt P08581, M1250T)"}, "[23]": {"assay": "Cmax in monkey at 0.5 mg/kg, po", "type": "ADME, organism-based, Macaca mulatta", "set-up": "dose 0.5 mg/kg, route oral", "details": "rhesus monkey, in vivo"}, "[24]": {"assay": "Half life in mouse at 1 mg/kg, iv", "type": "ADME, organism-based", "set-up": "dose 1 mg/kg, route intravenous", "details": "in vivo"}}, "note": "Active and inactive are the calls of the source. The calls are words filed in the database; no cut-off is given here.", "data": [{"smiles": "CN(C[C@@H]1COCCO1)S(=O)(=O)Nc1ccc2ccc3ncc(-c4cnn(C)c4)cc3c(=O)c2c1", "note": "[MK-2461]", "values": [{"measurement": "Activity", "setting": "Mus musculus [1]", "value": "Non-toxic"}, {"measurement": "Cmax", "setting": "[2]", "value": 2500, "unit": "nM"}, {"measurement": "IC50", "setting": "Cytochrome P450 2D6", "value": "> 100000", "unit": "nM"}, {"measurement": "Cmax", "setting": "[3]", "value": 4200, "unit": "nM"}, {"measurement": "IC50", "setting": "[4]", "value": 1, "unit": "nM"}, {"measurement": "half-life", "setting": "[5]", "value": 174, "unit": "min"}, {"measurement": "IC50", "setting": "[6]", "value": 230, "unit": "nM"}, {"measurement": "Activity", "setting": "Mus musculus [7]", "value": "Non-toxic"}, {"measurement": "clearance", "setting": "[8]", "value": 8.4, "unit": "mL/min/kg"}, {"measurement": "IC50", "setting": "[9]", "value": 900, "unit": "nM"}, {"measurement": "AUC(0-inf)", "setting": "[10]", "value": 0.4, "unit": "µM·h"}, {"measurement": "IC50", "setting": "[11]", "value": 39, "unit": "nM"}, {"measurement": "AUC(0-inf)", "setting": "[12]", "value": 0.4, "unit": "µM·h"}, {"measurement": "Tmax", "setting": "[13]", "value": 42, "unit": "min"}, {"measurement": "solubility", "setting": "[14]", "value": 3, "unit": "µg/mL"}, {"measurement": "IC50", "setting": "[15]", "value": 24, "unit": "nM"}, {"measurement": "bioavailability", "setting": "[16]", "value": 62, "unit": "%"}, {"measurement": "Vd", "setting": "[17]", "value": 0.5, "unit": "L/kg"}, {"measurement": "half-life", "setting": "[18]", "value": 48, "unit": "min"}, {"measurement": "inhibition", "setting": "Mus musculus [19]", "value": "Active"}, {"measurement": "IC50", "setting": "[20]", "value": 50, "unit": "nM"}, {"measurement": "IC50", "setting": "[21]", "value": 50, "unit": "nM"}, {"measurement": "IC50", "setting": "[22]", "value": 0.4, "unit": "nM"}, {"measurement": "Cmax", "setting": "[23]", "value": 120, "unit": "nM"}, {"measurement": "half-life", "setting": "[24]", "value": 30, "unit": "min"}]}]}
